Laboratory results as given in patent EP4707280A1, “1,4-CINEOLE DERIVATIVE AND INTERMEDIATE THEREOF, HERBICIDE CONTAINING SAID DERIVATIVE AS ACTIVE INGREDIENT, METHOD FOR USING HERBICIDE, AND METHOD FOR PREPARING AGROCHEMICAL COMPOSITION” (HOKKO CHEMICAL INDUSTRY CO., LTD., priority 2023, dated 2024).

Legend:
Assay type in all cases: in vivo
Echinochloa crus-galli [1] = test: Test Example 4: herbicidal effect test by stem and leaf treatment in upland field; details: 120 g per 10 ares, sprayed seven days after sowing, upland soil, 14 days after application; for inhibition at 1200 g/ha: Echinochloa crus-galli, read-out: weed inhibition rate
[2] = system: Echinochloa crus-galli var. formosensis; test: Test Example 2: herbicidal effect test by application during growth period of paddy rice; details: 120 g per 10 ares, applied seven days after sowing, flooded pots, 14 days after application; for inhibition at 1200 g/ha: Echinochloa crus-galli, read-out: weed inhibition rate
Outline: (§1)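 Paddy soil in flooded pots (water depth about 3 cm) was sown with weed seeds and kept in a glass greenhouse. Seven days after sowing, a diluted emulsifiable concentrate was applied by dropper at 120 g active ingredient per 10 ares. Weed inhibition was evaluated 14 days after application, in duplicate.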

Scirpus juncoides [3] = test: as above; details: 120 g per 10 ares, applied seven days after sowing, flooded pots, 14 days after application; for inhibition at 1200 g/ha: Schoenoplectiella juncoides, read-out: weed inhibition rate
Outline: as §1

[4] = system: Echinochloa crus-galli var. formosensis; test: Test Example 5: herbicidal effect test by soil application in paddy rice (low dose); details: 7.5 g per 10 ares, applied immediately after sowing, flooded pots, 14 days after application; for inhibition at 75 g/ha: Echinochloa crus-galli, soil, 336 h, read-out: weed inhibition rate
Outline: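 Paddy-soil pots, weeds sown 0–1 cm deep and flooded to about 3 cm in a greenhouse. Emulsifiable concentrate diluted in water and dropped in right after sowing at 7.5 g active ingredient per 10 ares. Duplicates; effect scored 14 days after application.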

[5] = system: Echinochloa crus-galli var. formosensis; test: Test Example 1: herbicidal effect test by soil application in paddy rice; details: 120 g active ingredient per 10 ares, applied immediately after sowing, flooded pots, 14 days after application; for pest or weed control at 1200 g/ha: Echinochloa crus-galli, soil, 336 h, read-out: weed inhibition rate
Outline: (§2)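 Soil-applied test under flooded paddy conditions (~3 cm water) in a glass greenhouse. Seeds were sown shallow (0–1 cm, 30 per species), then compound was dripped in as diluted emulsifiable concentrate at 120 g a.i./10 a.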

Scirpus juncoides [6] = test: as above; details: 120 g active ingredient per 10 ares, applied immediately after sowing, flooded pots, 14 days after application; for pest or weed control at 1200 g/ha: Schoenoplectiella juncoides, soil, 336 h, read-out: weed inhibition rate
Outline: as §2

Digitaria ciliaris [7] = test: Test Example 8: herbicidal effect test by stem and leaf treatment in upland field (low dose); details: 7.5 g per 10 ares, sprayed seven days after sowing, upland soil, 14 days after application; for inhibition at 75 g/ha: Digitaria ciliaris, read-out: weed inhibition rate
Echinochloa crus-galli [8] = test: as above; details: 7.5 g per 10 ares, sprayed seven days after sowing, upland soil, 14 days after application; for inhibition at 75 g/ha: Echinochloa crus-galli, read-out: weed inhibition rate
Digitaria ciliaris [9] = test: Test Example 3: herbicidal effect test by soil application in upland field; details: 120 g per 10 ares, sprayed one day after sowing, 14 days after application; for inhibition at 1200 g/ha: Digitaria ciliaris, read-out: weed inhibition rate
Outline: (§3)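 Pre-emergence test: seeds mixed into top 1 cm of alluvial loam upland soil in pots; emulsifiable concentrate diluted in water sprayed on soil one day after sowing at 100 L/10 a, 120 g a.i./10 a. Weed inhibition rate (%) scored at 14 days, in duplicate.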

Echinochloa crus-galli [10] = test: as above; details: 120 g per 10 ares, sprayed one day after sowing, 14 days after application; for inhibition at 1200 g/ha: Echinochloa crus-galli, read-out: weed inhibition rate
Outline: as §3

Digitaria ciliaris [11] = test: Test Example 7: herbicidal effect test by soil application in upland field (low dose); details: 7.5 g per 10 ares, sprayed one day after sowing, 14 days after application; for inhibition at 75 g/ha: Digitaria ciliaris, read-out: weed inhibition rate
Outline: (§4)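 Upland alluvial loam pots, seeds mixed into top 1 cm of soil; one day after sowing, diluted emulsifiable concentrate sprayed on soil at 100 L/10 a, giving 7.5 g active ingredient/10 a. Duplicate pots; weed inhibition rate (%) scored 14 days after application.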

Echinochloa crus-galli [12] = test: as above; details: 7.5 g per 10 ares, sprayed one day after sowing, 14 days after application; for inhibition at 75 g/ha: Echinochloa crus-galli, read-out: weed inhibition rate
Outline: as §4

Digitaria ciliaris [13] = test: Test Example 4: herbicidal effect test by stem and leaf treatment in upland field; details: 120 g per 10 ares, sprayed seven days after sowing, upland soil, 14 days after application; for inhibition at 1200 g/ha: Digitaria ciliaris, read-out: weed inhibition rate
[14] = system: Echinochloa crus-galli var. formosensis; test: Test Example 6: herbicidal effect test by application during growth period of paddy rice (low dose); details: 7.5 g per 10 ares, applied seven days after sowing, flooded pots, 14 days after application; for inhibition at 75 g/ha: Echinochloa crus-galli, read-out: weed inhibition rate
Outline: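 Paddy-soil pots, flooded ~3 cm after sowing weed seeds at 0-1 cm depth, greenhouse-grown. Seven days after sowing, diluted emulsifiable concentrate applied by dropper at 7.5 g active ingredient per 10 ares. Weed inhibition rate (%) scored 14 days after application, in duplicate.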

CC(C)[C@]12CC(OCc3c(Cl)cccc3Cl)[C@](C)(C[C@@H]1I)O2 (mixture of isomers) [1-779, (1R,2S,4S,SR)-5-[(2,6-dichlorophenyl)methoxy]-2-iodo-1-isopropyl-4-methyl-7-oxabicyclo[2.2.1]heptane]
≥ 80%: inhibition at 1200 g/ha (Echinochloa crus-galli [1]) | inhibition at 1200 g/ha [2] | inhibition at 1200 g/ha (Scirpus juncoides [3]) | inhibition at 75 g/ha [4] | pest or weed control at 1200 g/ha [5] | pest or weed control at 1200 g/ha (Scirpus juncoides [6]) | inhibition at 75 g/ha (Digitaria ciliaris [7]) | inhibition at 75 g/ha (Echinochloa crus-galli [8]) | inhibition at 1200 g/ha (Digitaria ciliaris [9]) | inhibition at 1200 g/ha (Echinochloa crus-galli [10]) | inhibition at 75 g/ha (Digitaria ciliaris [11]) | inhibition at 75 g/ha (Echinochloa crus-galli [12]) | inhibition at 1200 g/ha (Digitaria ciliaris [13]) | inhibition at 75 g/ha [14]

CC(C)[C@]12C[C@@H](OCc3ccccc3F)[C@](C)(C=C1OS(=O)(=O)C(F)(F)F)O2 (racemic) [3-680]
≥ 80%: weed inhibition rate (Echinochloa crus-galli [1]) | weed inhibition rate [2] | weed inhibition rate (Scirpus juncoides [3]) | weed inhibition rate [4] | weed inhibition rate [5] | weed inhibition rate (Scirpus juncoides [6]) | weed inhibition rate (Digitaria ciliaris [7]) | weed inhibition rate (Echinochloa crus-galli [8]) | weed inhibition rate (Digitaria ciliaris [9]) | weed inhibition rate (Echinochloa crus-galli [10]) | weed inhibition rate (Digitaria ciliaris [11]) | weed inhibition rate (Echinochloa crus-galli [12]) | weed inhibition rate (Digitaria ciliaris [13]) | weed inhibition rate [14]

Cc1ccccc1CO[C@@H]1C[C@]2(C(C)C)O[C@@]1(C)C[C@@H]2Cl [1-9, (1R,2S,4S,5R)-2-chloro-1-isopropyl-4-methyl-5-(o-tolylmethoxy)-7-oxabicyclo[2.2.1]heptane]
≥ 80%: inhibition at 1200 g/ha (Echinochloa crus-galli [1]) | inhibition at 1200 g/ha [2] | inhibition at 1200 g/ha (Scirpus juncoides [3]) | inhibition at 75 g/ha [4] | pest or weed control at 1200 g/ha [5] | pest or weed control at 1200 g/ha (Scirpus juncoides [6]) | inhibition at 75 g/ha (Digitaria ciliaris [7]) | inhibition at 75 g/ha (Echinochloa crus-galli [8]) | inhibition at 1200 g/ha (Digitaria ciliaris [9]) | inhibition at 1200 g/ha (Echinochloa crus-galli [10]) | inhibition at 75 g/ha (Digitaria ciliaris [11]) | inhibition at 75 g/ha (Echinochloa crus-galli [12]) | inhibition at 1200 g/ha (Digitaria ciliaris [13]) | inhibition at 75 g/ha [14]

CC(C)=CCOC1CC2(C(C)C)OC1(C)CC2Br (stereo not shown) [1-1334, 5-bromo-1-methyl-2-(3-methylbut-2-enoxy)-4-isopropyl-7-oxabicyclo[2.2.1]heptane]
≥ 80%: inhibition at 1200 g/ha (Echinochloa crus-galli [1]) | inhibition at 1200 g/ha [2] | inhibition at 1200 g/ha (Scirpus juncoides [3]) | inhibition at 75 g/ha [4] | pest or weed control at 1200 g/ha [5] | pest or weed control at 1200 g/ha (Scirpus juncoides [6]) | inhibition at 75 g/ha (Digitaria ciliaris [7]) | inhibition at 75 g/ha (Echinochloa crus-galli [8]) | inhibition at 1200 g/ha (Digitaria ciliaris [9]) | inhibition at 1200 g/ha (Echinochloa crus-galli [10]) | inhibition at 75 g/ha (Digitaria ciliaris [11]) | inhibition at 75 g/ha (Echinochloa crus-galli [12]) | inhibition at 1200 g/ha (Digitaria ciliaris [13]) | inhibition at 75 g/ha [14]

CC(C)=CCO[C@@H]1C[C@@]2(C(C)C)C=C[C@]1(C)O2 [3-693, (1R,4S,5R)-1-isopropyl-4-methyl-5-(3-methylbut-2-enoxy)-7-oxabicyclo[2.2.1]hept-2-ene]
≥ 80%: inhibition at 1200 g/ha (Echinochloa crus-galli [1]) | inhibition at 1200 g/ha [2] | inhibition at 1200 g/ha (Scirpus juncoides [3]) | inhibition at 75 g/ha [4] | pest or weed control at 1200 g/ha [5] | pest or weed control at 1200 g/ha (Scirpus juncoides [6]) | inhibition at 75 g/ha (Digitaria ciliaris [7]) | inhibition at 75 g/ha (Echinochloa crus-galli [8]) | inhibition at 1200 g/ha (Digitaria ciliaris [9]) | inhibition at 1200 g/ha (Echinochloa crus-galli [10]) | inhibition at 75 g/ha (Digitaria ciliaris [11]) | inhibition at 75 g/ha (Echinochloa crus-galli [12]) | inhibition at 1200 g/ha (Digitaria ciliaris [13]) | inhibition at 75 g/ha [14]
